In US9353119B2, “Composition for preventing and treating non-small cell lung cancer, containing pyrazino-triazine derivatives” (JW PHARMACEUTICAL CORPORATION, priority 2011, dated 2016):
Counter-ions that a name gives are not always drawn. Like-named read-outs stand apart in the source and are kept apart here.

Assays:
NCI-H1975 cells [1] = test: In vivo anticancer activity, NCI-H1975 xenograft (Experimental Example 1); design: species or system Balb/c nude mice; conditions: for TGI %: Table 7 summary, NCI-H1975 (EGFR TKI resistant)
Method: Measurements of body weights and tumor sizes were randomized for n=7 per group using in-house randomization software. The tumor size was calculated from measurements of the longest axis (length, m) and the shortest axis (width, m) according to the following formula: Tumor size (mm^3): Width (mm)×Width (mm)×Length (mm)/2
The anticancer activity depending on the administration was evaluated by tumor growth inhibition, (TGI, %) calculated according to the following formulas.
When the tumor size of the drug-administered group is larger than the initial tumor size: % TGI=100*(1−(tumor volumeDay X−tumor volumeInitial for treated group)/(tumor volumeDay X−tumor volumeInitial for Vehicle group))
When the tumor size of the drug-administered group is smaller than the initial tumor size: % TGI=100+100*(1−(Treated group tumor volumeDayX/Treated group tumor volumeinitial))
Herein, mortality indicated deaths resulting from drug administration.
Herein, maximum body weight loss (MBL) means the largest loss of body weight caused by drug administration and is an important factor for determining maximum tolerable dose (MTD). The change of body weight was expressed as percentage of the body weight just before drug administration (D1). As a rule, the dose at which 10% or more of the body weight was lost was determined as the MTD.

NCI-H460 cells = assay type: in vivo, Balb/c nude mice; conditions: for TGI %: Table 7 summary, NCI-H460 (EGFR TKI resistant), Cpd 1-1 given TIW
Method: From Day 6 (D1) to […] (D12) after the transplantation, three groups of the NCI-H460-transplanted mice were administered with compound of Chemical Formula 1-1 or paclitaxel as summarized in Table 3, below.

HCC827 cells = test: In vivo anticancer activity, HCC827 xenograft (Experimental Example 3); conditions: for MBL (%): D11; for TGI %: Table 7 summary, HCC827 (EGFR TKI sensitive), dose not given
NCI-H1975 cells [2] = test: In vivo anticancer activity, NCI-H1975 xenograft (Experimental Example 5)
Method: From Day 11 (D11) to Day 22 (D22) after the transplantation, three groups of the NCI-H1975-transplanted mice were administered with a bisodium salt of the compound of Chemical Formula 2-2 or cisplatin as summarized in Table 9, below.
The mean volume of tumors before the experiment (mean starting tumor volume) was 118 mm^3

NCI-H1975 cells [3] = test: In vivo anticancer activity, NCI-H1975 xenograft (Experimental Example 6); design: species or system Balb/c nude mice
Method: From Day 11 (D11) to Day 22 (D22) after the transplantation, five groups of the NCI-H1975-transplanted mice were administered with compounds 1-3 and 1-5 as summarized in Table 11, below.

NCI-H1975 cells [4] = test: In vivo anticancer activity, NCI-H1975 xenograft (Experimental Example 8); design: species or system Balb/c nude mice; conditions: Group 2: 60 mg/kg IV BIW for 2 weeks
Method: From Day 11 (D11) to Day 22 (D22) after the transplantation, two groups of the NCI-H1975-transplanted mice were administered with compound 1-7 as summarized in Table 13, below.

NCI-H1975 = test: In vitro cell growth inhibition (CellTiter-Glo), NCI-H1975; assay type: cell-based; conditions: Homo sapiens; NCI-H1975, 72 hrs
Method: (§1) This experiment aims to evaluate the in vitro anticancer activity of the pyrazino-triazine derivative (Chemical Formula 1-1P) of the present invention in various NSCLC cell lines.
(§2) NSCLC cells lines were seeded at a density of 5×10^3 cells/well into 96-well plates. Compound 1-1P and the reference drug doxorubicin were serially diluted by ½ in the concentration range of from 0.001 μM to 1 μM and the cells in each well were treated with each dilution in duplicate, followed by incubation for 72 hours in a 37° C., 5% CO2 incubator. CellTiter-Glo® (Luminescent Cell Viability Assay, #G7573, Promega) was added in an amount of 100 μL to each well and shaken for 2 min to lyze the cells. After incubation for 10 min at room temperature (25° C.), luminescence from each well was on a luminometer (Envision (Perkinelmer).
(§3) The anticancer activity depending on the administration of Compound 1-1P was evaluated over seven different NSCLC cell lines by cell growth inhibition 50 (GI50), a concentration needed to reduce the growth of treated cells to half that of untreated cells, calculated according to the following formula. GI50=(50−(y1−((y1−y2)/(x1−x2))*x1)/((y1−y2)/(x1−x2))
(§4) x1, x2=50% cell kill or lethal concentrations
(§5) y1, y2=cell densities at 50% cell kill or lethal concentrations

NCI-H23 = test: In vitro cell growth inhibition (CellTiter-Glo), NCI-H23; assay type: cell-based; conditions: Homo sapiens; NCI-H23, 72 hrs
Method: as §1, §2, §3, §4, §5

HCC827 = test: In vitro cell growth inhibition (CellTiter-Glo), HCC827; assay type: cell-based; conditions: Homo sapiens; HCC827, 72 hrs
Method: as §1, §2, §3, §4, §5

NCI-H460 = test: In vitro cell growth inhibition (CellTiter-Glo), NCI-H460; assay type: cell-based; conditions: Homo sapiens; NCI-H460, 72 hrs
Method: as §1, §2, §3, §4, §5

NCI-H1650 = test: In vitro cell growth inhibition (CellTiter-Glo), NCI-H1650; assay type: cell-based; conditions: Homo sapiens; NCI-H1650, 72 hrs
Method: as §1, §2, §3, §4, §5

PC6 = test: In vitro cell growth inhibition (CellTiter-Glo), PC6; assay type: cell-based; conditions: Homo sapiens, PC-6; PC6, 72 hrs
Method: as §1, §2, §3, §4, §5

A549 = test: In vitro cell growth inhibition (CellTiter-Glo), A549; assay type: cell-based; conditions: Homo sapiens; A549, 72 hrs
Method: as §1, §2, §3, §4, §5

[5] = Group 2: 1-1 100 mg/kg iv once a day, ten injections (D8-12, 15-19)
[6] = Group 3: 1-1 150 mg/kg iv once a day, ten injections (D8-12, 15-19)
[7] = Group 2: 1-1 150 mg/kg iv, six injections (D1, 3, 5, 8, 10, 12)
[8] = Group 2: 1-1 100 mg/kg iv once a day, 20 injections over four weeks
[9] = Group 3: 1-1 150 mg/kg iv once a day, 20 injections over four weeks
[10] = Group 6: paclitaxel 7.5 mg/kg ip once a week, two injections
[11] = Group 3: paclitaxel 20 mg/kg ip (D1, 3, 5, 8, 10, 12)
[12] = Group 6: paclitaxel 10 mg/kg ip once per week, four injections
[13] = Group 3: cisplatin 2.5 mg/kg IV BIW for 2 weeks
[14] = Group 2: 200 mg/kg IV QDx5 for 2 weeks
[15] = Group 3: 30 mg/kg IV QDx5 for 2 weeks
[16] = Group 2: 40 mg/kg IV QDx5 for 2 weeks

SMILES: C=CCN1CC(=O)N2[C@@H](Cc3ccc(OP(=O)([O-])O)cc3)C(=O)N(Cc3cccc4c(C(C)=O)cn(C)c34)C[C@@H]2N1C(=O)NCc1ccccc1.[Na+] [Compound 1-1]
- Tumor size on D22 compared with vehicle control (NCI-H1975 cells [1]; D22, dose not given): significantly reduced
- Mortality (NCI-H1975 cells [1]; [5]): 0/7
- TGI % D22 (NCI-H1975 cells [1]; [5]): 74%
- Tumor size @D 22) (Mean ± S.E. mm3) (NCI-H1975 cells [1]; [5]): 307 ± 97 mm3
- Mortality (NCI-H1975 cells [1]; [6]): 0/7
- TGI % D22 (NCI-H1975 cells [1]; [6]): 109%
- Tumor size @D 22) (Mean ± S.E. mm3) (NCI-H1975 cells [1]; [6]): 57 ± 22 mm3
- TGI % (NCI-H1975 cells [1]; dose not given): 100%
- Mortality (NCI-H460 cells; [7]): 0/6
- TGI % D12 (NCI-H460 cells; [7]): 25%
- Tumor size @D 12 (Mean ± S.E. mm^3) (NCI-H460 cells; [7]): 1196 ± 247 mm^3
- MBL (%) (NCI-H460 cells; Group 2: 1-1 150 mg/kg iv, six injections (D1, 3, 5, 8, 10, 12), @D2): 4 (@D2) %
- TGI % (NCI-H460 cells): 25%
- Mortality (HCC827 cells; [8]): 0/7
- TGI % D33 (HCC827 cells; [8]): 50%
- Tumor size @D 33 (Mean ± S.E. mm^3) (HCC827 cells; [8]): 380 ± 29 mm^3
- MBL (%) (HCC827 cells; [8]): 1 (D11) %
- Mortality (HCC827 cells; [9]): 0/7
- TGI % D33 (HCC827 cells; [9]): 68%
- Tumor size @D 33 (Mean ± S.E. mm^3) (HCC827 cells; [9]): 262 ± 30 mm^3
- MBL (%) (HCC827 cells; [9]): 1 (D11) %
- TGI % (HCC827 cells): 78%

SMILES: CC(=O)O[C@H]1C(=O)[C@@]2(C)[C@H]([C@H](OC(=O)c3ccccc3)[C@]3(O)C[C@H](OC(=O)[C@H](O)[C@@H](NC(=O)c4ccccc4)c4ccccc4)C(C)=C1C3(C)C)[C@]1(OC(C)=O)CO[C@@H]1C[C@@H]2O [Paclitaxel, reference compound]
- Mortality (NCI-H1975 cells [1]; [10]): 0/7
- TGI % D22 (NCI-H1975 cells [1]; [10]): 28%
- Tumor size @D 22) (Mean ± S.E. mm3) (NCI-H1975 cells [1]; [10]): 736 ± 79 mm3
- TGI % (NCI-H1975 cells [1]; dose not given): >30%
- Mortality (NCI-H460 cells; [11]): 0/6
- TGI % D12 (NCI-H460 cells; [11]): 15%
- Tumor size @D 12 (Mean ± S.E. mm^3) (NCI-H460 cells; [11]): 1339 ± 260 mm^3
- TGI % (NCI-H460 cells): >15%
- Mortality (HCC827 cells; [12]): 0/6
- TGI % D33 (HCC827 cells; [12]): 18%
- Tumor size @D 33 (Mean ± S.E. mm^3) (HCC827 cells; [12]): 557 ± 83 mm^3
- TGI % (HCC827 cells): >18%

SMILES: N.N.[Cl][Pt][Cl] [Cisplatin, reference compound]
- Mortality (NCI-H1975 cells [2]; [13]): 0/6
- TGI % D22 (NCI-H1975 cells [2]; [13]): 23%
- Tumor size @D 22 (Mean ± S.E. mm^3) (NCI-H1975 cells [2]; [13]): 750 ± 53 mm^3

SMILES: C[C@H]1[C@H]2N(C(=O)CN(C)N2C(=O)NCc2ccccc2)[C@@H](Cc2ccc(OP(=O)(O)O)cc2)C(=O)N1Cc1cccc2cccnc12 [2Na Salt of Cpd. 2-2]
- MBL (%) (NCI-H1975 cells [2]; [14]): no loss
- Mortality (NCI-H1975 cells [2]; [14]): 0/6
- TGI % D22 (NCI-H1975 cells [2]; [14]): 27%
- Tumor size @D 22 (Mean ± S.E. mm^3) (NCI-H1975 cells [2]; [14]): 720 ± 104 mm^3

SMILES: C=CCN1CC(=O)N2[C@@H](Cc3ccc(OP(=O)(O)O)cc3)C(=O)N(Cc3cccc4c(C(=O)Nc5ccc(N(C)C)nc5)cn(C)c34)C[C@@H]2N1C(=O)NCc1ccccc1 [Compound 1-5]
- Mortality (NCI-H1975 cells [3]; [15]): 0/6
- TGI % D22 (NCI-H1975 cells [3]; [15]): 71%
- Tumor size @D 22 (Mean ± S.E. mm^3) (NCI-H1975 cells [3]; [15]): 464 ± 45 mm^3
- MBL (%) (NCI-H1975 cells [3]; Group 3: 30 mg/kg IV QDx5 for 2 weeks, D12): 5 (D12) %

SMILES: C=CCN1CC(=O)N2[C@@H](Cc3ccc(OP(=O)(O)O)cc3)C(=O)N(Cc3cccc4c(-c5ccc(C(=O)N6CCCCC6)cc5)cn(C)c34)C[C@@H]2N1C(=O)NCc1ccccc1 [Compound 1-3]
- Mortality (NCI-H1975 cells [3]; [16]): 0/6
- TGI % D22 (NCI-H1975 cells [3]; [16]): 62%
- Tumor size @D 22 (Mean ± S.E. mm^3) (NCI-H1975 cells [3]; [16]): 571 ± 38 mm^3
- MBL (%) (NCI-H1975 cells [3]; Group 2: 40 mg/kg IV QDx5 for 2 weeks, D19): 4 (D19) %

SMILES: C=CCN1CC(=O)N2[C@@H](Cc3ccc(O)cc3)C(=O)N(Cc3cccc4c(C(=O)Nc5ccc(NCCN6CCOCC6)nc5)cn(C)c34)C[C@@H]2N1C(=O)NCc1ccccc1.Cl [Compound 1-7]
- Mortality (NCI-H1975 cells [4]): 0/5
- TGI % D22 (NCI-H1975 cells [4]): 41%
- Tumor size @D 22 (Mean ± S.E. mm^3) (NCI-H1975 cells [4]): 410 mm^3

SMILES: C=CCN1CC(=O)N2[C@@H](Cc3ccc(O)cc3)C(=O)N(Cc3cccc4c(C(C)=O)cn(C)c34)C[C@@H]2N1C(=O)NCc1ccccc1 [Compound 1-1P]
- GI50 (NCI-H1975): 111 nM
- GI50 (NCI-H23): 67 nM
- GI50 (HCC827): 115 nM
- GI50 (NCI-H460): 272 nM
- GI50 (NCI-H1650): 156 nM
- GI50 (PC6): 493 nM
- GI50 (A549): 372 nM
